Tested on: Energy system protein genes
Assay: DNA chip mRNA expression in yeast, energy system protein genes (Table 4)
Format: cell-based, Saccharomyces cerevisiae S288C
Summary of the method: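 Ratios compare mRNA levels in stressed and control S. cerevisiae. Each toxicant was applied for two hours to log-phase cultures at 25° C. at a sub-lethal, growth-inhibiting level; fluorescent cDNA (Cy3- or Cy5-dUTP) was hybridized to a genome-wide yeast chip for over 12 h at 65° C.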

Measured: The level of expressed mRNA in the presence of chemical substance/The level of expressed mRNA in the absence of chemical substance

Cl[C@H]1[C@H](Cl)[C@@H](Cl)[C@@H](Cl)[C@H](Cl)[C@H]1Cl [(7), γ-hexachlorocyclohexane]
1.1: yeast gene YDL181W, cells incubated two hours with the chemical substance | yeast gene YDR377W, cells incubated two hours with the chemical substance | yeast gene YGL018C, cells incubated two hours with the chemical substance | yeast gene YIL160C | yeast gene YLR134W, cells incubated two hours with the chemical substance | yeast gene YLR295C, cells incubated two hours with the chemical substance, 25° C., YPD medium | yeast gene YLR354C, cells incubated two hours with the chemical substance | yeast gene YML087C | yeast gene YMR323W, cells incubated two hours with the chemical substance | yeast gene YPL275W, cells incubated two hours with the chemical substance
5.9: yeast gene YDL021W
2.9: yeast gene YCL040W
6.5: yeast gene YGR043C
1.9: yeast gene YHR179W | yeast gene YNL331C | yeast gene YOL086C, cells incubated two hours with the chemical substance
0.3: yeast gene YJR048W | yeast gene YLL041C, cells incubated two hours with the chemical substance
1.8: yeast gene YDL107W, cells incubated two hours with the chemical substance | yeast gene YFL057C | yeast gene YLR258W, cells incubated two hours with the chemical substance | yeast gene YML129C, cells incubated two hours with the chemical substance
0.5: yeast gene YDR529C, cells incubated two hours with the chemical substance | yeast gene YGL256W, cells incubated two hours with the chemical substance | yeast gene YKL141W, cells incubated two hours with the chemical substance | yeast gene YPL061W, cells incubated two hours with the chemical substance
0.8: yeast gene YDL067C, cells incubated two hours with the chemical substance | yeast gene YGL205W, cells incubated two hours with the chemical substance | yeast gene YJL166W, cells incubated two hours with the chemical substance | yeast gene YLR284C, cells incubated two hours with the chemical substance | yeast gene YML120C, cells incubated two hours with the chemical substance
0.6: yeast gene YDR178W, cells incubated two hours with the chemical substance | yeast gene YEL039C, cells incubated two hours with the chemical substance | yeast gene YGL187C, cells incubated two hours with the chemical substance | yeast gene YKL148C, cells incubated two hours with the chemical substance | yeast gene YLR304C, cells incubated two hours with the chemical substance
3.3: yeast gene YAL060W
1.5: yeast gene YBL058W, cells incubated two hours with the chemical substance | yeast gene YBR221C, cells incubated two hours with the chemical substance | yeast gene YDR001C | yeast gene YDR050C, cells incubated two hours with the chemical substance | yeast gene YGR254W | yeast gene YJL216C, cells incubated two hours with the chemical substance | yeast gene YKL016C, cells incubated two hours with the chemical substance
1.3: yeast gene YDR079W, cells incubated two hours with the chemical substance | yeast gene YGL062W | yeast gene YGR062C, cells incubated two hours with the chemical substance, 25° C., YPD medium | yeast gene YLR044C, cells incubated two hours with the chemical substance | yeast gene YMR261C, cells incubated two hours with the chemical substance | yeast gene YPL262W, cells incubated two hours with the chemical substance | yeast gene YPR184W, cells incubated two hours with the chemical substance
3.7: yeast gene YGR008C | yeast gene YKR097W | yeast gene YPL088W
1.0: yeast gene YCR105W, cells incubated two hours with the chemical substance | yeast gene YDR298C, cells incubated two hours with the chemical substance | yeast gene YGL191W, cells incubated two hours with the chemical substance | yeast gene YGR087C, cells incubated two hours with the chemical substance | yeast gene YGR174C, cells incubated two hours with the chemical substance | yeast gene YJR121W, cells incubated two hours with the chemical substance | yeast gene YKR009C, cells incubated two hours with the chemical substance | yeast gene YLR038C, cells incubated two hours with the chemical substance | yeast gene YMR073C, cells incubated two hours with the chemical substance | yeast gene YMR118C | yeast gene YOR142W, cells incubated two hours with the chemical substance | yeast gene YOR388C, cells incubated two hours with the chemical substance
0.9: yeast gene YBL099W, cells incubated two hours with the chemical substance | yeast gene YBR001C, cells incubated two hours with the chemical substance | yeast gene YLR377C, cells incubated two hours with the chemical substance | yeast gene YMR205C, cells incubated two hours with the chemical substance | yeast gene YNL202W, cells incubated two hours with the chemical substance | yeast gene YOR178C, cells incubated two hours with the chemical substance | yeast gene YPR048W, cells incubated two hours with the chemical substance
1.4: yeast gene YCR012W | yeast gene YIR031C, cells incubated two hours with the chemical substance | yeast gene YKR058W, cells incubated two hours with the chemical substance, 25° C., YPD medium | yeast gene YNL071W | yeast gene YOL165C | yeast gene YPL240C
3.9: yeast gene YGR244C
3.2: yeast gene YNL241C
2.1: yeast gene YFR053C | yeast gene YJL052W
1.7: yeast gene YDL078C, cells incubated two hours with the chemical substance | yeast gene YDR231C | yeast gene YGR192C | yeast gene YJR155W | yeast gene YPL171C
3.6: yeast gene YDL174C
1.6: yeast gene YER178W | yeast gene YJR009C | yeast gene YPL031C, cells incubated two hours with the chemical substance
0.7: yeast gene YEL024W, cells incubated two hours with the chemical substance | yeast gene YJL121C, cells incubated two hours with the chemical substance
1.2: yeast gene YBR185C, cells incubated two hours with the chemical substance | yeast gene YCR046C, cells incubated two hours with the chemical substance | yeast gene YKL060C, cells incubated two hours with the chemical substance | yeast gene YLR345W | yeast gene YMR267W, cells incubated two hours with the chemical substance, 25° C., YPD medium | yeast gene YPL276W, cells incubated two hours with the chemical substance

— patent US8192962B2, “Processes for detecting toxic substances” (Daikin Industries, Ltd., priority 2001, dated 2012)
